ChEMBL document CHEMBL4130375, “Design, synthesis and biological evaluation of 4-amidobenzimidazole acridine derivatives as dual PARP and Topo inhibitors for cancer therapy” (Eur J Med Chem, 2017)
Calls of active or inactive are those of the source. No cut-off for these calls is given here.

Tests used:
[1] = test system: MCF7; assay: Induction of apoptosis in human MCF7 cells assessed as necrotic cells at 10 uM after 48 hrs by Annexin V-FITC/propidium iodide staining based flow cytometry (reference value: 0%); format: functional
[2] = test system: MCF7; assay: Upregulation of p21 protein expression in human MCF7 cells after 24 hrs by Western blot method; format: functional, cell-based
[3] = test system: MCF7; assay: Upregulation of cleaved PARP protein expression in human MCF7 cells after 24 hrs by Western blot method; format: functional, cell-based
[4] = test system: MCF7; assay: Induction of apoptosis in human MCF7 cells assessed as live cells at 10 uM after 48 hrs by Annexin V-FITC/propidium iodide staining based flow cytometry (reference value: 99.9%); format: functional
[5] = test system: MCF7; assay: Induction of apoptosis in human MCF7 cells assessed as live cells at 5 uM after 48 hrs by Annexin V-FITC/propidium iodide staining based flow cytometry (reference value: 99.9%); format: functional
[6] = test system: HCC1937; assay: Potency index, ratio of m-AMSA IC50 to compound IC50 for human HCC1937 cells harboring BRCA1 mutant; format: functional
[7] = test system: MCF7; assay: Upregulation of cleaved caspase-3 protein expression in human MCF7 cells after 24 hrs by Western blot method; format: functional, cell-based
[8] = test system: MCF7; assay: Downregulation of CyclinD protein expression in human MCF7 cells up to 10 uM after 24 hrs by Western blot method; format: functional, cell-based
[9] = Intrinsic clearance in mouse liver microsomes at 1.11 uM preincubated for 5 mins followed by NADPH addition by LC-MS/MS analysis; format: ADME, microsome; details: read-out: CLH
[10] = test system: MCF7; assay: Downregulation of CDK4 protein expression in human MCF7 cells up to 10 uM after 24 hrs by Western blot method; format: functional, cell-based
[11] = test system: MCF7; assay: Cell cycle arrest in human MCF7 cells assessed as accumulation at S phase at 10 uM after 24 hrs by propidium iodide staining based flow cytometry (reference value: 59.72 +/- 2.98%); format: functional
[12] = test system: HCC1937; assay: Potency index, ratio of olaparib IC50 to compound IC50 for human HCC1937 cells harboring BRCA1 mutant; format: functional
[13] = target: Cytochrome P450 2C19 (Homo sapiens, UniProt P33261); assay: Inhibition of CYP2C19 in human liver microsomes preincubated for 10 mins followed by NADPH/substrate addition measured after 20 mins by LC-MS/MS analysis
Chain of Cytochrome P450 2C19 (P33261 whole entry): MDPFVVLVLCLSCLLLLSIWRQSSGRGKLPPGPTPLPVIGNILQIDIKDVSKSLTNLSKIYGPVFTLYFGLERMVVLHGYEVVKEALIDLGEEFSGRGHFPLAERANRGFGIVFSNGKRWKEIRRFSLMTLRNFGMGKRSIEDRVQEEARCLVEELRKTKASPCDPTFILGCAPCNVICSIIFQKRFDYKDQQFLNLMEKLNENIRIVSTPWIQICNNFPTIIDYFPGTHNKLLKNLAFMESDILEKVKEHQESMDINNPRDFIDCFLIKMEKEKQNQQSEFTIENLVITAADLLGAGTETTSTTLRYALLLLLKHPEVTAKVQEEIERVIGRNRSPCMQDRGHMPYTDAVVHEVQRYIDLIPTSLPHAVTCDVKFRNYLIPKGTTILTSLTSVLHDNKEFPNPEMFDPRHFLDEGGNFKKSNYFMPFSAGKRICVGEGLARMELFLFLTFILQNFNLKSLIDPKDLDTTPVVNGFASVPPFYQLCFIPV

[14] = test system: MCF7; assay: Potency index, ratio of olaparib IC50 to compound IC50 for human MCF7 cells; format: functional
[15] = test system: MCF7; assay: Cell cycle arrest in human MCF7 cells assessed as accumulation at G2/M phase at 5 uM after 24 hrs by propidium iodide staining based flow cytometry (reference value: 22.61 +/- 1.55%); format: functional
[16] = Intrinsic clearance in human liver microsomes at 1.11 uM preincubated for 5 mins followed by NADPH addition by LC-MS/MS analysis; format: ADME, microsome; details: read-out: CLH
[17] = target: T1, Cytochrome P450 1A2 (Homo sapiens, UniProt P05177); assay: Inhibition of CYP1A2 in human liver microsomes preincubated for 10 mins followed by NADPH/substrate addition measured after 20 mins by LC-MS/MS analysis
T1 sequence (P05177 whole entry): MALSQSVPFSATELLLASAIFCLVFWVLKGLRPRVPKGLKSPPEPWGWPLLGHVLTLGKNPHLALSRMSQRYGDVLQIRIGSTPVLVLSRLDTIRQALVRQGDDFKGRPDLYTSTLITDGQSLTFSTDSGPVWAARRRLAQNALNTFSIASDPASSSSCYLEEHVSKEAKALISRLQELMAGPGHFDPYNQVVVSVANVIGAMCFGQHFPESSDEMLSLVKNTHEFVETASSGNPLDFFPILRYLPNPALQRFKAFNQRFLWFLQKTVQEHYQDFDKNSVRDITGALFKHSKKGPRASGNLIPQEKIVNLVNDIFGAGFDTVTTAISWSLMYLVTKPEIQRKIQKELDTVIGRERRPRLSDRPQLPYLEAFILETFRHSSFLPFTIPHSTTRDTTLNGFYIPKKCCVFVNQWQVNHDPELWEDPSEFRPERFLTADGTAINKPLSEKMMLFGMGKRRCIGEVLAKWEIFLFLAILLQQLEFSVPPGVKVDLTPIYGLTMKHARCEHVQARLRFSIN

[18] = test system: MCF7; assay: Upregulation of cleaved caspase-8 protein expression in human MCF7 cells after 24 hrs by Western blot method; format: functional, cell-based
[19] = test system: MCF7; assay: Induction of apoptosis in human MCF7 cells assessed as necrotic cells at 1 uM after 48 hrs by Annexin V-FITC/propidium iodide staining based flow cytometry (reference value: 0%); format: functional
[20] = target: T2, DNA topoisomerase 1 (Homo sapiens) (UniProt P11387); assay: Inhibition of human topoisomerase-1 at 2 to 100 uM using supercoiled pBR322 DNA as substrate after 10 to 15 mins by ethidium bromide staining based electrophoresis method
T2 sequence (whole entry): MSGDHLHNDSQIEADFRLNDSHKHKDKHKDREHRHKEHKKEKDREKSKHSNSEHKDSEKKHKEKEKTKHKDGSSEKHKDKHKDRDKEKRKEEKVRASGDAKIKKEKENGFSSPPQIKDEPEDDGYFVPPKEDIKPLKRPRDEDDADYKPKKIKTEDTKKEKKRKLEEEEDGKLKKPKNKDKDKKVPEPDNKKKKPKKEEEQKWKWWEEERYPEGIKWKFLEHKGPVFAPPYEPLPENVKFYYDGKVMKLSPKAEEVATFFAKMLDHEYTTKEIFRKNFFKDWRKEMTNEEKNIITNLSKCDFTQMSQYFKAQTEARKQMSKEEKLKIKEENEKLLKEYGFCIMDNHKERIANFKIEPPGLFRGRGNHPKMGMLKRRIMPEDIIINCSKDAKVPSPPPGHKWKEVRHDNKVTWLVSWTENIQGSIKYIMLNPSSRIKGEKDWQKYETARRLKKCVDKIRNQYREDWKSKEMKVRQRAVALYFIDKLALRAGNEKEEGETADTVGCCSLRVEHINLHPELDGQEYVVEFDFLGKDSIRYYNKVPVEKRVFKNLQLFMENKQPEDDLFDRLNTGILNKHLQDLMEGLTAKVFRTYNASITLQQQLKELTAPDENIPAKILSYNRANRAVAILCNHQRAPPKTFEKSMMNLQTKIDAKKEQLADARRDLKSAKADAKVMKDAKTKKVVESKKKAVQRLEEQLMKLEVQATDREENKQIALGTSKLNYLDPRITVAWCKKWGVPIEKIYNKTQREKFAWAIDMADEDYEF

[21] = test system: MCF7; assay: Induction of apoptosis in human MCF7 cells assessed as necrotic cells at 5 uM after 48 hrs by Annexin V-FITC/propidium iodide staining based flow cytometry (reference value: 0%); format: functional
[22] = target: T2, DNA topoisomerase 1 (Homo sapiens); assay: Inhibition of topoisomerase-1 in human MCF7 cells assessed as enzyme-DNA cleavage complex formation by measuring decrease in topoisomerase-1 protein expression after 24 hrs by Western blot analysis; format: cell-based
[23] = target: Cytochrome P450 2C9 (Homo sapiens, UniProt P11712); assay: Inhibition of CYP2C9 in human liver microsomes preincubated for 10 mins followed by NADPH/substrate addition measured after 20 mins by LC-MS/MS analysis
Chain of Cytochrome P450 2C9 (P11712 whole entry): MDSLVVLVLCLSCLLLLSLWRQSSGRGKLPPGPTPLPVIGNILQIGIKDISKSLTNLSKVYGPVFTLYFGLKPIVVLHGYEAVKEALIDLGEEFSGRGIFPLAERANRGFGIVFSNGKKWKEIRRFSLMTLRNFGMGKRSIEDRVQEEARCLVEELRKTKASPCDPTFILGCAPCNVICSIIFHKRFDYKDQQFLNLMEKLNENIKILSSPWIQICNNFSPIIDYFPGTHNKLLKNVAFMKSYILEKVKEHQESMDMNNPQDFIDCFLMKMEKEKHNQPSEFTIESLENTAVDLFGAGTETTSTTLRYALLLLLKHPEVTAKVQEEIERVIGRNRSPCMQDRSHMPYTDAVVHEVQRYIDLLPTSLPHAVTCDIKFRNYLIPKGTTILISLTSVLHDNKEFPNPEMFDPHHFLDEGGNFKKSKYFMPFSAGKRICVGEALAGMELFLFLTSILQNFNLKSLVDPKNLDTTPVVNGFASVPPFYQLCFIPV

With Cc1cccc2c(Nc3cccc(-c4nc5c(C(N)=O)cccc5[nH]4)c3)c3ccccc3nc12 the Activity [1] was 0.327%, the Activity [2] was “Dose-dependent effect” and the Activity [3] was “Dose-dependent effect”. It also gave an Activity [4] of 8.18%, an Activity [5] of 39.1% and a Ratio IC50 [6] of 9.5. The Activity [7] was “Dose-dependent effect”, the Activity [8] was “Active” and the microsomal CLint at 1.11 µM [9] was 11.4 µL/min/mg. For the same compound, the Activity [10] was “Active”, the Activity [11] was 30.87% and the Ratio IC50 [12] was 6. The IC50 [13] was > 10 µM, the “Ratio IC50” value [14] was 17 and the Activity [15] was 14.08%. The microsomal CLint at 1.11 µM [16] was 35.6 µL/min/mg, the IC50 [17] was > 10 µM and the Activity [18] was “Dose-dependent effect”. The Activity [19] was 0.531%, the inhibition [20] was “Active” and the Activity [21] was 0.641%. For the same compound, the inhibition [22] was “Dose-dependent effect” and the IC50 [23] was 2.2 µM.
